Data: PubChem BioAssay (NCI)
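Compound exposure: 48 hours, 5 concentrations, 96-well plates. The concentration for 50% growth inhibition is given as GI50. TGI marks complete inhibition of growth.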

Experiments:
Experiment in all cases: NCI-60 cell line screen, 48 h
[1] = system: SK-OV-3 ovarian
[2] = system: SNB-19 CNS
[3] = system: HCT-15 colon
[4] = system: NCI-H226 lung
[5] = system: HOP-62 NSCLC
[6] = system: SK-MEL-5 melanoma
[7] = system: HL-60(TB) leukemia
[8] = system: CAKI-1 renal
[9] = system: RXF 393 renal
[10] = system: SR leukemia
[11] = system: 786-0 renal
[12] = system: BT-549 breast
[13] = system: SK-MEL-2 melanoma
[14] = system: SW-620 colon
[15] = system: MOLT-4 leukemia
[16] = system: NCI-H460 lung
[17] = system: UO-31 renal
[18] = system: HCC-2998 colon
[19] = system: ACHN renal
[20] = system: HOP-92 NSCLC
[21] = system: UACC-62 melanoma
[22] = system: MDA-MB-435
[23] = system: PC-3 prostate
[24] = system: OVCAR-5 ovarian
[25] = system: LOX IMVI melanoma
[26] = system: NCI/ADR-RES ovarian
[27] = system: SNB-75 CNS
[28] = system: MDA-MB-231 breast
[29] = system: SF-268 CNS
[30] = system: OVCAR-3 ovarian
[31] = system: HS 578T breast
[32] = system: SF-539 CNS
[33] = system: SF-295 CNS
[34] = system: SN12C renal
[35] = system: K-562 leukemia
[36] = system: MCF7 breast
[37] = system: DU-145 prostate
[38] = system: T-47D breast
[39] = system: TK-10 renal
[40] = system: IGROV1 ovarian
[41] = system: UACC-257 melanoma
[42] = system: KM12 colon
[43] = system: SK-MEL-28 melanoma
[44] = system: EKVX NSCLC
[45] = system: OVCAR-8 ovarian
[46] = system: CCRF-CEM leukemia
[47] = system: RPMI-8226 leukemia
[48] = system: A498 renal

Q: Which results are given for Clc1ccc2oc3c(NCCCN4CCOCC4)c4ccccc4nc3c2c1?
A: GI50 [1]: 3.23 µM; TGI [1]: 17.1 µM; GI50 [2]: 3.48 µM; TGI [2]: 20 µM; GI50 [3]: 1.53 µM; TGI [3]: 5.33 µM; GI50 [4]: 2.2 µM; TGI [4]: 6.2 µM; GI50 [5]: 1.72 µM; TGI [5]: 4.65 µM; GI50 [6]: 4.15 µM; TGI [6]: 15.7 µM; GI50 [7]: 0.295 µM; TGI [7]: 1.21 µM; GI50 [8]: 1.4 µM; TGI [8]: 3.21 µM; GI50 [9]: 1.41 µM; TGI [9]: 2.8 µM; GI50 [10]: 1.69 µM; TGI [10]: 8.9 µM; GI50 [11]: 1.61 µM; TGI [11]: 4.45 µM; GI50 [12]: 2.37 µM; TGI [12]: 5.51 µM; GI50 [13]: 3 µM; TGI [13]: 8.79 µM; GI50 [14]: 0.839 µM; TGI [14]: 3.21 µM; GI50 [15]: 0.534 µM; TGI [15]: 12.7 µM; GI50 [16]: 1.18 µM; TGI [16]: 3.38 µM; GI50 [17]: 1.34 µM; TGI [17]: 3.68 µM; GI50 [18]: 1.36 µM; TGI [18]: 3.11 µM; GI50 [19]: 0.88 µM; TGI [19]: 2.59 µM; GI50 [20]: 1.32 µM; TGI [20]: 5.64 µM; GI50 [21]: 2.17 µM; TGI [21]: 5.07 µM; GI50 [22]: 1.66 µM; TGI [22]: 3.35 µM; GI50 [23]: 1.78 µM; TGI [23]: 3.99 µM; GI50 [24]: 1.83 µM; TGI [24]: 5.28 µM; GI50 [25]: 1.27 µM; TGI [25]: 2.77 µM; GI50 [26]: 1.01 µM; TGI [26]: 5.55 µM; GI50 [27]: 1.77 µM; TGI [27]: 5.88 µM; GI50 [28]: 2.27 µM; TGI [28]: 8.43 µM; GI50 [29]: 2.32 µM; TGI [29]: > 100 µM; GI50 [30]: 3.29 µM; TGI [30]: 34.7 µM; GI50 [31]: 3.43 µM; TGI [31]: 22.6 µM; GI50 [32]: 1.56 µM; TGI [32]: 2.92 µM; GI50 [33]: 2.76 µM; TGI [33]: 11.3 µM; GI50 [34]: 1.6 µM; TGI [34]: 6.36 µM; GI50 [35]: 1.56 µM; TGI [35]: 10.2 µM; GI50 [36]: 1.17 µM; TGI [36]: 3.16 µM; GI50 [37]: 2.76 µM; TGI [37]: 11.5 µM; GI50 [38]: 3.06 µM; TGI [38]: 18.9 µM; GI50 [39]: 4.61 µM; TGI [39]: 20.7 µM; GI50 [40]: 2.79 µM; TGI [40]: 22.2 µM; GI50 [41]: 1.78 µM; TGI [41]: 3.5 µM; GI50 [42]: 2.49 µM; TGI [42]: > 100 µM; GI50 [43]: 1.72 µM; TGI [43]: 3.16 µM; GI50 [44]: 2.89 µM; TGI [44]: 10.1 µM; GI50 [45]: 1.82 µM; TGI [45]: 5.1 µM; GI50 [46]: 0.117 µM; TGI [46]: 5.48 µM; GI50 [47]: 2.12 µM; TGI [47]: 5.05 µM; GI50 [48]: 4.06 µM; TGI [48]: 17 µM
